ChEMBL document CHEMBL1201862, “PubChem BioAssay data set” (2004)
Where a name gives a salt, the structure may show the parent alone. Activity calls are given as the source filed them.

Columns and labels:
[1] = bead-based luminescence quenchers, dual-tagged ARNT – biochemical, AlphaScreen, cherry-pick, artefact control for ARNT-TACC3 interaction inhibitor project, dose response (AID 651705); assay type: functional;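 also: AlphaScreen bead proximity signal that flags compounds interfering with the detection technology; potency reflects signal decrease which marks the compound as an assay artifact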
[2] = biological target: Adenosylmethionine-8-amino-7-oxononanoate aminotransferase (Mycobacterium tuberculosis, UniProt P9WQ81); assay: Mycobacterium tuberculosis BioA enzyme inhibitor Measured in Biochemical System Using Plate Reader - 2163-02_Inhibitor_Dose_CherryPick_Activity.; assay type: functional, Mycobacterium tuberculosis UT205
[3] = biological target: T1, Mitochondrial peptide methionine sulfoxide reductase (Bos taurus, UniProt P54149); assay type: functional;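 also: absorbance read-out, biochemical high-throughput dose-response screen for MsrA inhibitors, confirmatory; recombinant bovine MsrA coupled to E. coli TrxB with NADPH and selenocystamine; potency is for inhibitors of MsrA activity on DMSO substrate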
T1 sequence (P54149 whole entry): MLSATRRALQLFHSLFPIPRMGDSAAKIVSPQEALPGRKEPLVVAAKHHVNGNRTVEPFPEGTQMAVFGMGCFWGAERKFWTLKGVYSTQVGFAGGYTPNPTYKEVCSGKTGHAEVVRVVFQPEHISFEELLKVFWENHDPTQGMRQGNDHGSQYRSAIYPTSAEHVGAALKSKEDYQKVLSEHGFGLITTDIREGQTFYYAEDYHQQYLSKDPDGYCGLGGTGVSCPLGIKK

[4] = tested on: HeLa; assay: ATP-based viability loss in HeLa cells – cell-based, CellTiter-Glo luminescence, cherry-pick samples, cytotoxicity control for MITF activator project, dose response (AID 540259); assay type: functional; settings: Homo sapiens
[5] = tested on: HEK293; assay: EBV LMP1 TES2 canonical NF-kB signalling blockers – cell-based, HEK293, luciferase, cherry-pick, dose response (AID 588343); assay type: functional; settings: Homo sapiens
[6] = biological target: T2, Latent membrane protein 1 (Human herpesvirus 4 (strain B95-8), UniProt P03230); assay: LMP1 TES1 pathway selectivity over dsRED control – imaging, HEK293T, dual-color eGFP/dsRED, cherry-picks, selectivity assay for LMP1 NF-kB inhibitor project, dose response (AID 588398); assay type: functional, cell-based
T2 sequence (P03230 whole entry): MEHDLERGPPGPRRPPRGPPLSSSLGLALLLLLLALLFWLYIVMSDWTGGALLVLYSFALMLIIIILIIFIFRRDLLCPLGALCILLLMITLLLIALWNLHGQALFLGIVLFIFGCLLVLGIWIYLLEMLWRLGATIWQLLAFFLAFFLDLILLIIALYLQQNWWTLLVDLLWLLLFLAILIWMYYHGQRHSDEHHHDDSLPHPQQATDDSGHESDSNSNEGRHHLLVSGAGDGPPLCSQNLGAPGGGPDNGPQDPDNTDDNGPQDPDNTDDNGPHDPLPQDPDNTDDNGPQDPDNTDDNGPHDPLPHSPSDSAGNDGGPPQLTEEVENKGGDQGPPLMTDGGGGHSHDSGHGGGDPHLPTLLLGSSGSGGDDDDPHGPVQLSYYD

[7] = biological target: Paired box protein Pax-8 (Homo sapiens, UniProt Q06710); assay: PAX8 transcriptional activity inhibition in RMG-I – RMG-I cells, luciferase, cherry-pick, dose response (AID 687027); assay type: functional, cell-based;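 also: luciferase reporter driven by Pax8 target thyroperoxidase promoter measured by SteadyGlo luminescence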
[8] = luciferase reporter signal suppression in cells – H4 neuroglioma cells, luminescence, dose response (AID 1990); assay type: functional, cell-based
[9] = cAMP pathway inhibition in counterscreen cell line – TR-FRET cAMP detection, counter-screen for MC4R biased antagonist project, dose response (AID 602305); assay type: functional, cell-based;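 also: U2OS cells stimulated with forskolin near its EC80 as the cAMP inducer; potency is for inhibition of forskolin-stimulated cAMP signaling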
[10] = biological target: Melanocortin receptor 4 (Homo sapiens, UniProt P32245); assay: inhibitors of MC4R cAMP signaling – cell-based, TR-FRET, biased antagonists, dose response (AID 602298); assay type: functional;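 also: antagonist potency against agonist-stimulated cAMP production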
[11] = Luminescence Cell-Based Dose Response HTS to Identify Inhibitors of 5'UTR Stem-Loop Driven Prion Protein mRNA Translation in H4 Neuroglioblastoma Cells. [Related pubchem assays: 1827 (Project Summary), 1813 (Primary HTS)]; assay type: functional
[12] = alpha-synuclein stem-loop luciferase translation blockers – H4 neuroglioma cells, luminescence, confirmation (AID 1988); assay type: functional, cell-based
[13] = biological target: Photoreceptor-specific nuclear receptor (Homo sapiens, UniProt Q9Y5X4); assay type: functional, cell-based;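 also: CHO-S cells with Gal4-NCOR and VP16-NR2E3 two-hybrid luciferase reporter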
[14] = Luminescence Cell-Based Dose Retest to Confirm Inhibitors of Cancer Stem Cells. [Related pubchem assays (depositor defined):AID2717, AID2721]; assay type: functional; settings: Homo sapiens
[15] = biological target: Beta-galactosidase (Escherichia coli, UniProt Q8VNN2); assay: PubChem AID 485352; assay type: functional
[16] = biological target: Luciferin 4-monooxygenase (Photinus pyralis, UniProt P08659); assay: inhibition of purified Photinus pyralis luciferase – biochemical, luminescence, dose response (AID 1891)
[17] = Luminescence Cell-Based Dose Confirmation HTS to Identify Inhibitors of Platelet Dense Granule Release. [Related pubchem assays: 1663 (Primary HTS), 1678 (Summary of Project)]; assay type: functional
[18] = biological target: T3, Type-1 angiotensin II receptor (Homo sapiens, UniProt P30556); assay: antagonism of angiotensin II type 1 receptor – cell-based, uHTS hits, selectivity assay for APJ receptor antagonist project, dose response (AID 463214); assay type: functional;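 also: antagonist potency against angiotensin II stimulated AT1 response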
T3 sequence (P30556 whole entry): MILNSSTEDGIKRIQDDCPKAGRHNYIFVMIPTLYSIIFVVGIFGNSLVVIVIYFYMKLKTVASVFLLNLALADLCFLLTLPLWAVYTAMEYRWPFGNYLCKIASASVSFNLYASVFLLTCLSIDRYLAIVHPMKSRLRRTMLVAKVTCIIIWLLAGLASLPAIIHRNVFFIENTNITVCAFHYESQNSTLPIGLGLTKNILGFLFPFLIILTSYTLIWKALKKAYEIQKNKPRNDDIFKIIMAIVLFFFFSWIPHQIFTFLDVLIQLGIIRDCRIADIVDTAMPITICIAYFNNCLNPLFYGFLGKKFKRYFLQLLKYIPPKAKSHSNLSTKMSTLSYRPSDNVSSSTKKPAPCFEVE

[19] = biological target: SWI/SNF-related matrix-associated actin-dependent regulator of chromatin subfamily A member 2 (Homo sapiens, UniProt P51531); assay: Luminescence-based cell-based high throughput dose response assay to identify activators of the function of SWI/SNF related, matrix associated, actin dependent regulator of chromatin, subfamily a, member 2 (SMARCA2, BRM).; assay type: functional
[20] = Counterscreen for activators of the function of SWI/SNF related, matrix associated, actin dependent regulator of chromatin, subfamily a, member 2 (SMARCA2, BRM): Luminescence-based cell-based high throughput dose response assay to identify non-selective compounds using the VP16 reporter assay.; assay type: functional
[21] = biological target: Glucose-6-phosphate 1-dehydrogenase (Homo sapiens, UniProt P11413); assay: inhibition of Homo sapiens G6PD, dose series – biochemical, fluorescence, selectivity assay for P. falciparum G6PD inhibitor project, dose response (AID 504792); assay type: functional
[22] = biological target: T4, Aminopeptidase N (Plasmodium falciparum FcB1/Columbia, UniProt O96935); assay: malaria alanyl aminopeptidase activity blockers – biochemical, fluorogenic H-Leu-NHMec substrate, 1536-well (AID 1445); parameters: species or system Plasmodium falciparum 3D7, 3D7
T4 sequence (O96935 whole entry): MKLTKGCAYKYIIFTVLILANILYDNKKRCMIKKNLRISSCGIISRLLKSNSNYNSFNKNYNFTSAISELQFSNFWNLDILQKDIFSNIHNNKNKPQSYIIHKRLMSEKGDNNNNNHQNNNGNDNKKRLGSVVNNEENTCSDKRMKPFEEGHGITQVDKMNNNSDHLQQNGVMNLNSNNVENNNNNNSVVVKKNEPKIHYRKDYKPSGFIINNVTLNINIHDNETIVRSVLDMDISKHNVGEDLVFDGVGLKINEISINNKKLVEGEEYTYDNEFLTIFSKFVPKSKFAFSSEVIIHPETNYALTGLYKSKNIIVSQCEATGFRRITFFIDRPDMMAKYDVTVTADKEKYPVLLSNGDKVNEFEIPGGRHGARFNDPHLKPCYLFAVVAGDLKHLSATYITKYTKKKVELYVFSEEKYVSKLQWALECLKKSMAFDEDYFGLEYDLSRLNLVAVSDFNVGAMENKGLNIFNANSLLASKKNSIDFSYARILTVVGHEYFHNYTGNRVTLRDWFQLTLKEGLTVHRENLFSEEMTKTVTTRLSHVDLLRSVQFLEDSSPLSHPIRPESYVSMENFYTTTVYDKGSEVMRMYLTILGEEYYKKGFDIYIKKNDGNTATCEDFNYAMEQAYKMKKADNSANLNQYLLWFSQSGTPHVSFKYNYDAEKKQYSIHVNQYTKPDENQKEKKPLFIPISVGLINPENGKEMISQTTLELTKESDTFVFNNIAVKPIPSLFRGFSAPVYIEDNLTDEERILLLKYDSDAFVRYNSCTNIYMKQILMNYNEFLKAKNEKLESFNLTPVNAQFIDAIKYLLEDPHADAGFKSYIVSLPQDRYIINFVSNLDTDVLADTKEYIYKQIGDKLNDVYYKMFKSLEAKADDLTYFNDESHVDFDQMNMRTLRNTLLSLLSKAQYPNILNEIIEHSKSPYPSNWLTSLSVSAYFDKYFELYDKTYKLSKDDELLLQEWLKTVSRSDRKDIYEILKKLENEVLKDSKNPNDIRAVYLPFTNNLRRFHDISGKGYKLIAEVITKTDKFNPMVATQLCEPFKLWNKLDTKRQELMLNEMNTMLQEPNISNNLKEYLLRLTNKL

[23] = biological target: T5, Coagulation factor XII (Homo sapiens, UniProt P00748); assay type: functional;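 also: activated factor XIIa alpha cleaving a fluorogenic AMC peptide substrate; inhibitor potency from loss of enzyme activity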
T5 sequence (P00748 whole entry): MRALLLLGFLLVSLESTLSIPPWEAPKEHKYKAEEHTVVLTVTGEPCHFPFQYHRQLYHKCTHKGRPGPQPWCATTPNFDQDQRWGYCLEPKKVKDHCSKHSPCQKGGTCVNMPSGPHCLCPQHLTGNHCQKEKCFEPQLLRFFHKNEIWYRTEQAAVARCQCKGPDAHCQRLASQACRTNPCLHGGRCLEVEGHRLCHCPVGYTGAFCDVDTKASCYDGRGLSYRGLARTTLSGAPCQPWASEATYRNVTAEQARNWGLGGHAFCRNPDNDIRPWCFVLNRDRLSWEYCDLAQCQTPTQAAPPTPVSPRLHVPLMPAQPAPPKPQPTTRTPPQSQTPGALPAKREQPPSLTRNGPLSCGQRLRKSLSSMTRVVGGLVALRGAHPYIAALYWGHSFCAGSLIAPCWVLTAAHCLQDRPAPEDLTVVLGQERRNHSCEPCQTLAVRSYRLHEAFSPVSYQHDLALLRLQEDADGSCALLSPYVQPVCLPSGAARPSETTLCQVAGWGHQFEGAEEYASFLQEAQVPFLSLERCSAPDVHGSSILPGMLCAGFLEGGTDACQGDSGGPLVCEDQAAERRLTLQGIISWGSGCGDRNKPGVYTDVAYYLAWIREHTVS

[24] = biological target: Protein Wnt-3a (Mus musculus, UniProt P27467); assay: antagonism of Wnt3a pathway luciferase reporter – Wnt-LIGHT cells, luminescence, selectivity assay for Gli-SUFU antagonist project, dose response (AID 651570); assay type: functional; settings: read-out: IC50_Mean;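 also: Wnt-LIGHT reporter cells stimulated with conditioned medium from Wnt3a-producing cells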
Protein Wnt-3a, sequence (P27467 whole entry): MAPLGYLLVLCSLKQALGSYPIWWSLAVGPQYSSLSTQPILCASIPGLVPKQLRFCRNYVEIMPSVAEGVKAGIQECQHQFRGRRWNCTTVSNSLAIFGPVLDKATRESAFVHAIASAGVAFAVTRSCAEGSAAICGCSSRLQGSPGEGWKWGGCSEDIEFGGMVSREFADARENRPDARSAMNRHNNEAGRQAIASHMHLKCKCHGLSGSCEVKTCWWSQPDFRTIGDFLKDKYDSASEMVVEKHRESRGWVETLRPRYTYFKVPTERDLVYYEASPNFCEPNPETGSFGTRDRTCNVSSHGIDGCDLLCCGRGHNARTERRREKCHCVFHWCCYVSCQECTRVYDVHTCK

Beta-galactosidase, sequence (Q8VNN2 whole entry): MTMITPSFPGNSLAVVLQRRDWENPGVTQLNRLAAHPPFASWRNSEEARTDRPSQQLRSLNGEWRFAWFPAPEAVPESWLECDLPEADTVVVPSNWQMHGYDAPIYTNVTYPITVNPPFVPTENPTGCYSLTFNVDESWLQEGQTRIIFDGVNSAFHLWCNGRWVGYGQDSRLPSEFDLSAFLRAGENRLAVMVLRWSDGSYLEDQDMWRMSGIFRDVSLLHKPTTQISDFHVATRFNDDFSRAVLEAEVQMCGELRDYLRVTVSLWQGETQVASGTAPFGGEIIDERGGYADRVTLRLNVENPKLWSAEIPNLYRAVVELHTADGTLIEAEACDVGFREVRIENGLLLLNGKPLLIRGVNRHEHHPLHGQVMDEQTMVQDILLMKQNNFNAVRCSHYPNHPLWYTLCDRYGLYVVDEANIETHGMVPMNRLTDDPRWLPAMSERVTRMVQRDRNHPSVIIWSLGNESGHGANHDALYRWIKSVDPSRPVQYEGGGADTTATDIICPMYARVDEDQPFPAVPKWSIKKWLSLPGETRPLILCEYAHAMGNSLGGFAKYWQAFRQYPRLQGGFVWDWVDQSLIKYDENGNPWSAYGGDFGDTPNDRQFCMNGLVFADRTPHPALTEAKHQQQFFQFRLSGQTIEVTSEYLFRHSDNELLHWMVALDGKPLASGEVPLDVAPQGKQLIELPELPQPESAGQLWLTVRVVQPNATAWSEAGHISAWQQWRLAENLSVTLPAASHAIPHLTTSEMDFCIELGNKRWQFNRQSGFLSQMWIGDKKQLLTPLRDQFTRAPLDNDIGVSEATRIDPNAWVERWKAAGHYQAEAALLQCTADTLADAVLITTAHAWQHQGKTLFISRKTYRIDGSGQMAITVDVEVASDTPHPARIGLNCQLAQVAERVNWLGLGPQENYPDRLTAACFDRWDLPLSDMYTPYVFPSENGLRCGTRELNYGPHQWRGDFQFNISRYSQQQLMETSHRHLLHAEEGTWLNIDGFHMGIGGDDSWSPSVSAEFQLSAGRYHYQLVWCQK
Adenosylmethionine-8-amino-7-oxononanoate aminotransferase, sequence (P9WQ81 whole entry): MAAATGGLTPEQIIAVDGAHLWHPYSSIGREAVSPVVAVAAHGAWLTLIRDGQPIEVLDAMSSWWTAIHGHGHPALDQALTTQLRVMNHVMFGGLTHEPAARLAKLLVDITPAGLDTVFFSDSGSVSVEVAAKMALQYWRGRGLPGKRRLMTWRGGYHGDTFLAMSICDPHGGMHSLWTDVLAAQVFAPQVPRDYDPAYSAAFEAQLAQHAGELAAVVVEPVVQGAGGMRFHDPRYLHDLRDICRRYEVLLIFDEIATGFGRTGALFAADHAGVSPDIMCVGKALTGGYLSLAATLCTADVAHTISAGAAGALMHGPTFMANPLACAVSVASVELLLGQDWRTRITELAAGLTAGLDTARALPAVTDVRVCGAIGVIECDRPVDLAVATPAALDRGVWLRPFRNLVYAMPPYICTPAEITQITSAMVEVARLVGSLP
Glucose-6-phosphate 1-dehydrogenase, sequence (P11413 whole entry): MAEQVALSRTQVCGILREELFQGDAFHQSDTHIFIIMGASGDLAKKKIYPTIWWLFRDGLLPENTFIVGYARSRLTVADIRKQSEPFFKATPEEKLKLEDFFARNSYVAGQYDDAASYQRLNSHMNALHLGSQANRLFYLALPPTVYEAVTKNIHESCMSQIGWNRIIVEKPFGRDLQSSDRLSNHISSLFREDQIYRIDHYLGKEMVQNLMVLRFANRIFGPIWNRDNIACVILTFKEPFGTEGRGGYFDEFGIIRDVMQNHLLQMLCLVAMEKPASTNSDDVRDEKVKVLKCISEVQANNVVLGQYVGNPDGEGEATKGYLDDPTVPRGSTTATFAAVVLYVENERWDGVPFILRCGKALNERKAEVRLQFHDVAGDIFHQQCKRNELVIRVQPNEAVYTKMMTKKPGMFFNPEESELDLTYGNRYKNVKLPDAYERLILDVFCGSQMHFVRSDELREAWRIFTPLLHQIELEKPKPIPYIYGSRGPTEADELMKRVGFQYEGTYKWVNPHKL
Melanocortin receptor 4, sequence (P32245 whole entry): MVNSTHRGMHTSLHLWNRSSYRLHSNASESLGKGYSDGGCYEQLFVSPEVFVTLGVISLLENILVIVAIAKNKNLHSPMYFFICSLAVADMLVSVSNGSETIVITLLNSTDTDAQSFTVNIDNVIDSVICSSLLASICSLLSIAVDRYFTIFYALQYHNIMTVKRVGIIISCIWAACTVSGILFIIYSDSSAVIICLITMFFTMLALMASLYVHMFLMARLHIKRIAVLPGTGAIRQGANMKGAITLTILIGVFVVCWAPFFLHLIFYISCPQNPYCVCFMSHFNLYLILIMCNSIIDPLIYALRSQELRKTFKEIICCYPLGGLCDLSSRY
SWI/SNF-related matrix-associated actin-dependent regulator of chromatin subfamily A member 2, sequence (P51531 whole entry): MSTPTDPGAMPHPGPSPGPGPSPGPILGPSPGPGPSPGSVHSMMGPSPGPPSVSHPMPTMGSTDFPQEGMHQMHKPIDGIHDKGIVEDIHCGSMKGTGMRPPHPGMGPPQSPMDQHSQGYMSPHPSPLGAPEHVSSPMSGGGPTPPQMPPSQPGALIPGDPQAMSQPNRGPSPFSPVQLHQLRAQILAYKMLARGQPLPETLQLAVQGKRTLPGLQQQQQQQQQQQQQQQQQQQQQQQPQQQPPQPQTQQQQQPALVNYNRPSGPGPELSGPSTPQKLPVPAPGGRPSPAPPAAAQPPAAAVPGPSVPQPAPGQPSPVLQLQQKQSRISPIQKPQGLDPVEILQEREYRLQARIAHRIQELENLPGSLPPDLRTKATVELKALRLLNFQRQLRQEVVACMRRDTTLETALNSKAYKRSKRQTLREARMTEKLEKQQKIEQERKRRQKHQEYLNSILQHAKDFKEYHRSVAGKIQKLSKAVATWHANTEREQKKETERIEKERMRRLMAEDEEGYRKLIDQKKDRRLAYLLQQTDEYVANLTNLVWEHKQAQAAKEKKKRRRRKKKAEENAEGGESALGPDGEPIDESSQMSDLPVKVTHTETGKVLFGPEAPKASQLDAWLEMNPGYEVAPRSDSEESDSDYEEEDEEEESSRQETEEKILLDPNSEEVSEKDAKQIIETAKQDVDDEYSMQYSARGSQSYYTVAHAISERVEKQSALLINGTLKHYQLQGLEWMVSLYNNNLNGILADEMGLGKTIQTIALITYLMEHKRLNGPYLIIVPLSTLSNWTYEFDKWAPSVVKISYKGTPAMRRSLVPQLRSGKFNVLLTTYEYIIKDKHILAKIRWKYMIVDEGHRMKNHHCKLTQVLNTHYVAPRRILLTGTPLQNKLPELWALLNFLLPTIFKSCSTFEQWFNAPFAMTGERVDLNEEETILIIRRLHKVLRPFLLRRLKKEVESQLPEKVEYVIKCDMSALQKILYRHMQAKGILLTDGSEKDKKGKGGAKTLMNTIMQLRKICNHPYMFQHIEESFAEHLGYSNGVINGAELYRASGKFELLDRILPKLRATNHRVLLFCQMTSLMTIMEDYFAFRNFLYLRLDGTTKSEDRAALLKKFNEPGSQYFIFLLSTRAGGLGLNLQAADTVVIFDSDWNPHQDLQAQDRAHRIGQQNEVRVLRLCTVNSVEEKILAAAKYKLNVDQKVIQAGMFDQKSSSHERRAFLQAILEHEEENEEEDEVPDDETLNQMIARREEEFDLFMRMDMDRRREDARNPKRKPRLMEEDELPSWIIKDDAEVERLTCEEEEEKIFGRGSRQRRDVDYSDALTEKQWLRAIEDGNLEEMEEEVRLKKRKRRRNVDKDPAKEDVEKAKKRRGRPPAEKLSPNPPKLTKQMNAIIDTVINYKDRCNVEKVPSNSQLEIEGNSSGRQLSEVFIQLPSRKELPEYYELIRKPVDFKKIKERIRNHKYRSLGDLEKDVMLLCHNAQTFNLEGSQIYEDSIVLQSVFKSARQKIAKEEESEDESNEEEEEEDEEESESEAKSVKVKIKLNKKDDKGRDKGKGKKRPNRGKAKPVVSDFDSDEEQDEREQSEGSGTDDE
Photoreceptor-specific nuclear receptor, sequence (Q9Y5X4 whole entry, the tested form may be a part): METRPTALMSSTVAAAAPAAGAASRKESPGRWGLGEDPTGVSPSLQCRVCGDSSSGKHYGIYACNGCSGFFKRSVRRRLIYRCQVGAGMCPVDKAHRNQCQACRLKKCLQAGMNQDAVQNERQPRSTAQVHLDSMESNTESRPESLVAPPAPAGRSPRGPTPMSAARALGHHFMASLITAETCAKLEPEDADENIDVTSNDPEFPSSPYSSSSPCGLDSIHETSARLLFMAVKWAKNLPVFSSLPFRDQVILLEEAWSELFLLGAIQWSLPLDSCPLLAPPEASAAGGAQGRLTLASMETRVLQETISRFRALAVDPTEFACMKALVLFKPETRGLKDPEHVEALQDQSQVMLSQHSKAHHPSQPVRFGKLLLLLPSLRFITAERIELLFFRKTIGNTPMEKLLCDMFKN

## COc1ccc(NC(=O)N[C@@H]2CC[C@@H](CCn3cc(-c4ccccn4)nn3)O[C@H]2CO)cc1
[1]
  AC50: 82.2 µM (active)

## Nn1c(SCc2nc3ccccc3[nH]2)nnc1-c1cccnc1
[2]
  AC50: 5.06 µM (active)

## Cc1ccc(C2=N/C(=C/N3CCOCC3)C(=O)O2)cc1
[3]
  IC50: 142 µM (inactive)

## Cc1ccc(NC(=O)Nc2ccc3c(c2)N(C)C(=O)CS3)nc1
[4]
  AC50: > 350 µM (inactive)

## CCN(CC)c1ccc(C(NC(=O)C(C)C)c2ccc3cccnc3c2O)cc1 (centres undefined)
[5]
  AC50: 7.26 µM (active)
[6]
  AC50: 3.72 µM (active)
[7]
  AC50: 1.09 µM (active)

## COc1ccc(NC(=O)c2ccc(-n3cncn3)c([N+](=O)[O-])c2)cc1OC
[2]
  AC50: 2.2 µM (active)

## Cn1cc(CC(=O)NCCCN2CCCC2)c2ccccc21
[6]
  AC50: 43.5 µM (active)

## COc1cccc(C2c3[nH]c4ccccc4c3CCN2Cc2ncc[nH]2)c1 (centres undefined)
[1]
  AC50: 123 µM (active)

## Cc1ccc(C)c(NC(=O)COC(=O)c2cccc3c2C(=O)c2ccccc2C3=O)c1
[8]
  EC50: > 120 µM (not active)
[9]
  IC50: > 64.6 µM (inactive)
[10]
  IC50: > 64.6 µM (inactive)
[11]
  EC50: > 60 µM (not active)
[12]
  EC50: > 120 µM (not active)

## CCCCC[C@@H]1C=C(C(=O)O)[C@H](c2ccc(Cl)c(Cl)c2)N1S(=O)(=O)c1ccc(C)cc1
[13]
  IC50: 4.88 µM (active)
[14]
  AC50: 4.58 µM (active)

## Brc1ccc(N=Nc2ccc3ccccc3n2)cc1
[8]
  EC50: 0.107 µM (active)
[15]
  EC50: > 40 µM (inactive)
[16]
  EC50: 0.299 µM (active)
[17]
  EC50: 0.969 µM (active)
[18]
  IC50: > 40 µM (not active)
[12]
  EC50: 0.125 µM (active)

## COc1ccc(-c2cc(-c3ccccc3)nc(NN)n2)cc1OC
[15]
  EC50: > 40 µM (inactive)
[18]
  IC50: 11.2 µM (active)

## O=C(Nc1ccccc1Cl)c1ccc2nccnc2c1
[4]
  AC50: 67.6 µM (active)

## Fc1ccc2nc(N3CCCC3)sc2c1
[4]
  AC50: 42.8 µM (active)

## O=C(CNc1ccc(Br)cc1)c1ccc(Br)s1
[19]
  EC50: > 91.1 µM (inactive)
[15]
  EC50: > 40 µM (inactive)
[18]
  IC50: 14.7 µM (active)
[20]
  EC50: > 91.1 µM (inactive)

## Cc1ccc(S(=O)(=O)Nc2nc(C)c(C(=O)N/N=C/c3ccccc3)s2)cc1
[21]
  IC50: > 80 µM (inactive)
[22]
  IC50: 61.9 µM (active)

## COc1ccc(C(=O)ON=C2C=C(C)C(=O)C(C)=C2)cc1
[21]
  IC50: > 80 µM (inactive)
[23]
  IC50: 0.574 µM (active)

## COC(=O)c1c(NC(=O)C2COc3ccccc3O2)sc2c1CCN(C(=O)OC)C2 (centres undefined)
[9]
  IC50: > 64.6 µM (inactive)
[10]
  IC50: > 64.6 µM (inactive)

## C[C@@H]1CN([C@H]2CC[C@](C#N)(c3ccc(F)cc3)CC2)CC[C@]1(C(=O)O)c1ccccc1 [LEVOCABASTINE HYDROCHLORIDE]
[6]
  AC50: 197 µM (active)

## O=C(C[C@@H]1C/C=C\C[C@H](NC(=O)OCC2c3ccccc3-c3ccccc32)C(=O)OC[C@H]2CCCN2C1=O)N[C@H](CO)Cc1ccccc1
[24]
  IC50: 8.46 µM (active)
